Where “and” joins values, the source holds several entries; their conditions need not be identical. Equal values may be shown once. Read-outs that look alike come from different tables or passages of the source.
Experiments:
[1] = test system: Herpes Simplex Virus Type 1 (HSV-1); type: cell-based
Protocol: (§1) Contact time for each sample was 48±2 hours and Log10 titer reductions were generated using the input viral titer (Log10TCID50) and the output viral titer (Log10TCID50).
The plate was incubated for 48±2 hours at 36±2° C. with 5±3% CO2. The plate was then frozen at −60 to −90° C., thawed, and the contents of each well centrifuged at 2,000 RPM for 10 minutes. The supernatant from each well was collected and assayed for infectious virus.
as §1

[2] = test system: Herpes Simplex Virus Type 2 (HSV-2); experiment: Antiviral activity of tranexamic acid/L-arginine against HSV-2; type: cell-based; settings: contact time 48 ± 8 hours
[3] = test system: Herpes Simplex Virus Type 1 (HSV-1); experiment: Antiviral activity of tranexamic acid/L-arginine against HSV-1; type: cell-based; settings: for Viral Promotion (%) / Output Viral Titer (Log10TCID50) / Titer (Log10TCID50/mL) / Viral Reduction (%): contact time 48 ± 8 hours; for Log10 Titer Difference: vs input virus control average 6.39
[4] = test system: Herpes Simplex Virus Type 1 (HSV-1); settings: contact time 48 ± 8 hours
[5] = test system: recurrent outbreaks of cold sores; experiment: Topical treatment and prophylactic use in human subjects with recurrent cold sores; type: in vivo
[6] = test system: Herpes Simplex Virus Type 2 (HSV-2); settings: contact time 48 ± 8 hours
[7] = test system: cell medium used for HSV-1 and HSV-2; experiment: Cytotoxicity limit in the cell medium used for HSV-1 and HSV-2
[8] = 5,000 μM L-arginine alone, listed as L-arginine
[9] = 10,000 μM L-arginine alone, listed as L-arginine
[10] = tranexamic acid 0.5% (w/v), high virus inocula
[11] = tranexamic acid 0.5% (w/v), low virus inocula
[12] = tranexamic acid 0.5% (w/v), low virus inocula, listed as tranexamic acid
[13] = tranexamic acid 1.0% (w/v), high virus inocula
[14] = tranexamic acid 1.0% (w/v), high virus inocula, listed as tranexamic acid
[15] = tranexamic acid 1.0% (w/v), low virus inocula
[16] = tranexamic acid 1.0% (w/v), low virus inocula, listed as tranexamic acid
[17] = tranexamic acid 2.0% (w/v), high virus inocula
[18] = 2% (w/v) tranexamic acid alone, listed as tranexamic acid

For `N[C@@H](Cc1c[nH]cn1)C(=O)O` [L-Histidine, L-histidine], the “Titer (Log10TCID50/mL)” value ([1]; 0.5 mM L-histidine alone, contact time 48 ± 2 hours) was 8.46 ± 0.09 Log10TCID50/mL and 8.76 ± 0.06 Log10TCID50/mL and 8.76 ± 0.10 Log10TCID50/mL, the “Log10 titer reduction (peak of replicates)” value ([1]; 0.5 mM L-histidine alone, vs input virus control average) was 0.04 Log10 and the “Output Viral Titer (Log10TCID50)” value ([1]; 0.5 mM L-histidine, HSV-1, contact time 48 ± 2 hours, 3 replicates) was 8.46 Log10TCID50 and 8.76 Log10TCID50 (2×). The “Titer (Log10TCID50/mL)” value ([1]; 1 mM L-histidine alone, contact time 48 ± 2 hours) was 8.70 ± 0.11 Log10TCID50/mL and 8.40 ± 0.11 Log10TCID50/mL, the “Log10 titer reduction (peak of replicates)” value ([1]; 1 mM L-histidine alone, vs input virus control average) was 0.10 Log10 and the “Output Viral Titer (Log10TCID50)” value ([1]; 1 mM L-histidine, HSV-1, contact time 48 ± 2 hours, 3 replicates) was 8.76 Log10TCID50 and 8.70 Log10TCID50 and 8.40 Log10TCID50. The “Titer (Log10TCID50/mL)” value ([1]; 5 mM L-histidine alone, contact time 48 ± 2 hours) was 8.52 ± 0.10 Log10TCID50/mL and 8.82 ± 0.08 Log10TCID50/mL and 8.64 ± 0.06 Log10TCID50/mL, the Log10 Titer Reduction ([1]; 5 mM L-histidine alone, vs input virus control average) was “no Log10 titer reduction” and the “Output Viral Titer (Log10TCID50)” value ([1]; 5 mM L-histidine, HSV-1, contact time 48 ± 2 hours, 3 replicates) was 8.52 Log10TCID50 and 8.82 Log10TCID50 and 8.64 Log10TCID50. For the same molecule, the “Log10 Titer Reduction” value ([1]; 5 mM L-histidine, HSV-1, contact time 48 ± 2 hours, input viral titer 8.50, 3 replicates) was “No reduction”, the “Titer (Log10TCID50/mL)” value ([1]; 10 mM L-histidine alone, contact time 48 ± 2 hours) was 8.70 ± 0.00 Log10TCID50/mL and 8.64 ± 0.06 Log10TCID50/mL and the Log10 Titer Reduction ([1]; 10 mM L-histidine alone, vs input virus control average) was “no Log10 titer reduction”. For the same molecule, the “Output Viral Titer (Log10TCID50)” value ([1]; 10 mM L-histidine, HSV-1, contact time 48 ± 2 hours, 3 replicates) was 8.70 Log10TCID50 and 8.64 Log10TCID50 (2×), the “Log10 Titer Reduction” value ([1]; 10 mM L-histidine, HSV-1, contact time 48 ± 2 hours, input viral titer 8.50, 3 replicates) was “No reduction” and the “Titer (Log10TCID50/mL)” value ([1]; 25 mM L-histidine alone, contact time 48 ± 2 hours) was 8.64 ± 0.10 Log10TCID50/mL and 8.52 ± 0.12 Log10TCID50/mL and 8.70 ± 0.00 Log10TCID50/mL.
`NC[C@H]1CC[C@H](C(=O)O)CC1` [Tranexamic Acid (TA)] was tested, and the “Output Viral Titer (Log10TCID50)” value ([1]; 2% (w/v) tranexamic acid, HSV-1, contact time 48 ± 2 hours, 3 replicates) was 7.15 Log10TCID50 and 7.21 Log10TCID50 and 7.27 Log10TCID50 and the “Log10 Titer Reduction” value ([1]; 2% (w/v) tranexamic acid, HSV-1, contact time 48 ± 2 hours, input viral titer 8.50, 3 replicates) was 1.35 Log10 and 1.29 Log10 and 1.23 Log10.
With `N=C(N)NCCC[C@H](N)C(=O)O` [L-Arginine, L-arginine] the “Viral Promotion (%)” value ([2]; 5,000 μM L-arginine alone) was 44% and 76%, the “Viral Reduction (%)” value ([2]; 5,000 μM L-arginine alone) was 32% and the “Viral Promotion (%)” value [2, 8] was 76%. For the same molecule, the “Viral Promotion (%)” value [2, 9] was 76%, the “Viral Promotion (%)” value ([2]; 25,000 μM L-arginine alone) was 3% and the “Viral Reduction (%)” value ([2]; 25,000 μM L-arginine alone) was 66%. The “Log10 titer reduction (peak of replicates)” value ([1]; 0.5 mM L-arginine alone, vs input virus control average) was 0.28 Log10, the “Log10 titer reduction (peak of replicates)” value ([1]; 2 mM L-arginine alone, vs input virus control average) was 0.04 Log10 and the Log10 Titer Reduction ([1]; 5 mM L-arginine alone, vs input virus control average) was “no Log10 titer reduction”. For the same molecule, the “Log10 Titer Reduction” value ([1]; 5 mM L-arginine, HSV-1, contact time 48 ± 2 hours, input viral titer 8.50, 3 replicates) was “No reduction”, the “Viral Promotion (%)” value [3, 8] was 54% and the “Output Viral Titer (Log10TCID50)” value ([3]; 10,000 μM L-arginine alone) was 7.21 Log10TCID50 and 7.09 Log10TCID50 and 7.15 Log10TCID50. For the same molecule, the “Titer (Log10TCID50/mL)” value ([3]; 10,000 μM L-arginine alone) was 7.21 ± 0.06 Log10TCID50/mL and 7.09 ± 0.09 Log10TCID50/mL and 7.15 ± 0.08 Log10TCID50/mL, the “Viral Promotion (%)” value ([3]; 10,000 μM L-arginine alone) was 85% and 80% and 83% and the “Viral Promotion (%)” value [3, 9] was 85%. For the same molecule, the “Log10 Titer Difference” value ([3]; 10,000 μM L-arginine alone) was 0.82 Log10 and 0.70 Log10 and 0.76 Log10, the “Viral Promotion (%)” value ([3]; 25,000 μM L-arginine alone) was 85% and 74% and 65% and the “Viral Promotion (%)” value ([3]; 25,000 μM L-arginine alone, listed as L-arginine) was 85%.
With `NC[C@H]1CC[C@H](C(=O)O)CC1` [Tranexamic Acid, tranexamic acid] the “Output Viral Titer (Log10TCID50)” value [4, 10] was 6.19 Log10TCID50 and 6.43 Log10TCID50 and 6.37 Log10TCID50, the “Reduction (%)” value [4, 10] was 45.9% and the “Titer (Log10TCID50/mL)” value [4, 10] was 6.19 ± 0.08 Log10TCID50/mL and 6.43 ± 0.13 Log10TCID50/mL and 6.37 ± 0.11 Log10TCID50/mL. For the same molecule, the “Output Viral Titer (Log10TCID50)” value [4, 11] was 5.24 Log10TCID50 and 5.54 Log10TCID50, the “Reduction (%)” value [4, 11] was 62.9% and 90.5% and 81.0% and the “Reduction (%)” value [4, 12] was 90.5%. For the same molecule, the “Output Viral Titer (Log10TCID50)” value [4, 13] was 6.43 Log10TCID50 and 6.61 Log10TCID50, the “Titer (Log10TCID50/mL)” value [4, 13] was 6.43 ± 0.12 Log10TCID50/mL and 6.61 ± 0.11 Log10TCID50/mL and 6.43 ± 0.13 Log10TCID50/mL and the “Reduction (%)” value [4, 14] was 5.9%. For the same molecule, the “Output Viral Titer (Log10TCID50)” value [4, 15] was 4.34 Log10TCID50, the “Reduction (%)” value [4, 15] was 97.9% and 98.8% and 75.5% and the “Reduction (%)” value [4, 16] was 98.8%. For the same molecule, the “Output Viral Titer (Log10TCID50)” value [4, 17] was 5.71 Log10TCID50 and 5.42 Log10TCID50, the “Reduction (%)” value [4, 17] was 82.1% and 90.8% and the “Titer (Log10TCID50/mL)” value [4, 17] was 5.71 ± 0.12 Log10TCID50/mL and 5.42 ± 0.06 Log10TCID50/mL. The “Reduction (%)” value ([4]; tranexamic acid 2.0% (w/v), high virus inocula, listed as tranexamic acid) was 90.8%, the “Viral Reduction (%)” value ([2]; 2% (w/v) tranexamic acid alone) was 99.6% and 99.7% and 99.3% and the “Viral Reduction (%)” value [2, 18] was 99.7%. The “outcome of cold sore outbreak” value ([5]; fourth subject, 10% (w/v) tranexamic acid topically a single time at onset) was “the following morning the blister was gone and the outbreak had ceased”, the “cold sore outbreaks during the year” value ([5]; one subject, 3 or 10% (w/v) tranexamic acid applied to face daily for approximately one year, usual experience 3 to 5 outbreaks) was “one” and the “time until cold sore had healed to only a small red spot” value ([5]; person, approximately 0.25 mL aqueous solution of 5% (w/v) tranexamic acid by swab, 5 times over 36 hours) was ≤ 36 h. For the same molecule, the “time until symptoms of the outbreak resolved” value ([5]; three human subjects, 3% (w/v) tranexamic acid topically several times a day from beginning of outbreak, usual duration about 2 weeks) was ≤ 48 h, the “Titer (Log10TCID50/mL)” value [1] was 7.15 ± 0.08 Log10TCID50/mL and 7.21 ± 0.06 Log10TCID50/mL and 7.27 ± 0.00 Log10TCID50/mL and the “Log10 titer reduction (peak of replicates)” value ([1]; 2% (w/v) tranexamic acid alone, vs input virus control average) was 1.29 Log10. The “Reduction (%)” value [6, 10] was 52.85%, the “Output Viral Titer (Log10TCID50)” value [6, 11] was 5.77 Log10TCID50 and 5.71 Log10TCID50 and the “Reduction (%)” value [6, 11] was 78.94% and 64.24% and 68.85%. For the same molecule, the “Titer (Log10TCID50/mL)” value [6, 11] was 5.54 ± 0.09 Log10TCID50/mL and 5.77 ± 0.10 Log10TCID50/mL and 5.71 ± 0.08 Log10TCID50/mL, the “Reduction (%)” value [6, 12] was 78.94% and the “Output Viral Titer (Log10TCID50)” value [6, 13] was 7.62 Log10TCID50 and 7.44 Log10TCID50 and 7.38 Log10TCID50. The “Reduction (%)” value [6, 13] was 37.85% and 58.94% and 64.24%, the “Titer (Log10TCID50/mL)” value [6, 13] was 7.62 ± 0.08 Log10TCID50/mL and 7.44 ± 0.11 Log10TCID50/mL and 7.38 ± 0.10 Log10TCID50/mL and the “Reduction (%)” value [6, 14] was 64.24%. The “Output Viral Titer (Log10TCID50)” value [6, 15] was 5.60 Log10TCID50 and 5.83 Log10TCID50 and 5.89 Log10TCID50, the “Reduction (%)” value [6, 15] was 75.82% and 58.94% and 52.85% and the “Titer (Log10TCID50/mL)” value [6, 15] was 5.89 ± 0.10 Log10TCID50/mL and 5.60 ± 0.09 Log10TCID50/mL and 5.83 ± 0.08 Log10TCID50/mL. The “Reduction (%)” value [6, 16] was 75.82%, the “Reduction (%)” value [6, 17] was 99.98% and 99.85% and the “maximum concentration that could be used without cytotoxicity” value [7] was 2 % (w/v). The “Output Viral Titer (Log10TCID50)” value ([3]; 2% (w/v) tranexamic acid alone) was 5.30 Log10TCID50 and 5.12 Log10TCID50, the “Titer (Log10TCID50/mL)” value ([3]; 2% (w/v) tranexamic acid alone) was 5.24 ± 0.08 Log10TCID50/mL and 5.30 ± 0.10 Log10TCID50/mL and 5.12 ± 0.10 Log10TCID50/mL and the “Viral Reduction (%)” value ([3]; 2% (w/v) tranexamic acid alone) was 93% and 92% and 95%. For the same molecule, the “Viral Reduction (%)” value [3, 18] was 95% and the “Log10 Titer Difference” value ([3]; 2% (w/v) tranexamic acid alone) was −1.15 Log10 and −1.09 Log10 and −1.27 Log10.

— patent US11413279B2, “Methods and compositions for the antiviral use of synthetic lysine analogs and mimetics” (priority 2017, dated 2022)
